Experimental data as given in ChEMBL document CHEMBL1201862, “PubChem BioAssay data set” (2004).
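Exposure lasted 48 hours, with cells grown in 96-well plates and compounds tested at five concentrations. At the GI50, growth is halved.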 Calls of active or inactive are those of the source. Cut-off read from the data, not from the text of the source: active = GI50 up to about 1.1 µM and inactive = higher.

Assays:
Experiment in all cases: DTP human tumour cell line panel, 48 h
786-0 = tested on: 786-0
A498 = tested on: A498
A549 = tested on: A549
ACHN = tested on: ACHN
BT-549 = tested on: BT-549
CAKI-1 = tested on: CAKI-1
CCRF-CEM = tested on: CCRF-CEM
COLO 205 = tested on: COLO 205
DU-145 = tested on: DU-145
EKVX = tested on: EKVX
HCC 2998 = tested on: HCC 2998
HCT-116 = tested on: HCT-116
HCT-15 = tested on: HCT-15
HL-60 = tested on: HL-60
HOP-62 = tested on: HOP-62
HOP-92 = tested on: HOP-92
HT-29 = tested on: HT-29
Hs-578T = tested on: Hs-578T
IGROV-1 = tested on: IGROV-1
K562 = tested on: K562
KM12 = tested on: KM12
LOX IMVI = tested on: LOX IMVI
M14 = tested on: M14
MCF7 = tested on: MCF7
MDA-MB-231 = tested on: MDA-MB-231
MDA-MB-435 = tested on: MDA-MB-435
MDA-N = tested on: MDA-N
MOLT-4 = tested on: MOLT-4
Malme-3M = tested on: Malme-3M
NCI-H226 = tested on: NCI-H226
NCI-H23 = tested on: NCI-H23
NCI-H460 = tested on: NCI-H460
NCI-H522 = tested on: NCI-H522
NCI/ADR-RES = tested on: NCI/ADR-RES
OVCAR-3 = tested on: OVCAR-3
OVCAR-4 = tested on: OVCAR-4
OVCAR-5 = tested on: OVCAR-5
OVCAR-8 = tested on: OVCAR-8
PC-3 = tested on: PC-3
RPMI-8226 = tested on: RPMI-8226
RXF 393 = tested on: RXF 393
SF-268 = tested on: SF-268
SF-295 = tested on: SF-295
SF-539 = tested on: SF-539
SK-MEL-28 = tested on: SK-MEL-28
SK-MEL-2 = tested on: SK-MEL-2
SK-MEL-5 = tested on: SK-MEL-5
SK-OV-3 = tested on: SK-OV-3
SN12C = tested on: SN12C
SNB-19 = tested on: SNB-19
SNB-75 = tested on: SNB-75
SR = tested on: SR
SW-620 = tested on: SW-620
TK-10 = tested on: TK-10
U-251 = tested on: U-251
UACC-257 = tested on: UACC-257
UACC-62 = tested on: UACC-62
T47D = tested on: T47D
UO-31 = tested on: UO-31

For Cc1cc(O)c2c(=O)c3ccccc3[nH]c2c1, the GI50 (786-0) was 15.6 µM (inactive), the GI50 (A498) was 32.8 µM (inactive) and the GI50 (A549) was 29.4 µM (inactive). The GI50 (ACHN) was 21.5 µM (inactive), the GI50 (BT-549) was 24.8 µM (inactive) and the GI50 (CAKI-1) was 11.8 µM (inactive). The GI50 (CCRF-CEM) was 24.1 µM (inactive), the GI50 (COLO 205) was 13.2 µM (inactive) and the GI50 (DU-145) was 35.2 µM (inactive). For the same compound, the GI50 (EKVX) was 41.1 µM (inactive), the GI50 (HCC 2998) was 37.3 µM (inactive) and the GI50 (HCT-116) was 20.3 µM (inactive). For the same compound, the GI50 (HCT-15) was 11.4 µM, the GI50 (HL-60) was 28.3 µM (inactive) and the GI50 (HOP-62) was 23.2 µM (inactive). The GI50 (HOP-92) was 25.9 µM (inactive), the GI50 (HT-29) was 8.63 µM (inactive) and the GI50 (Hs-578T) was 45.3 µM (inactive). For the same compound, the GI50 (IGROV-1) was 13.3 µM (inactive), the GI50 (K562) was 9.77 µM (inactive) and the GI50 (KM12) was 18.5 µM (inactive). The GI50 (LOX IMVI) was 18.8 µM (inactive), the GI50 (M14) was 18.1 µM (inactive) and the GI50 (MCF7) was 0.133 µM (active). The GI50 (MDA-MB-231) was 32.4 µM (inactive), the GI50 (MDA-MB-435) was 27.4 µM (inactive) and the GI50 (MDA-N) was 42.9 µM (inactive). The GI50 (MOLT-4) was 36.3 µM (inactive), the GI50 (Malme-3M) was 32.7 µM (inactive) and the GI50 (NCI-H226) was 23.1 µM (inactive). The GI50 (NCI-H23) was 15 µM (inactive), the GI50 (NCI-H460) was 14.9 µM (inactive) and the GI50 (NCI-H522) was 3.56 µM (inactive). The GI50 (NCI/ADR-RES) was 23.5 µM (inactive), the GI50 (OVCAR-3) was 29 µM (inactive) and the GI50 (OVCAR-4) was 15.1 µM (inactive). For the same compound, the GI50 (OVCAR-5) was 18.9 µM (inactive), the GI50 (OVCAR-8) was 23 µM (inactive) and the GI50 (PC-3) was 19.3 µM (inactive). For the same compound, the GI50 (RPMI-8226) was 11.8 µM (inactive), the GI50 (RXF 393) was 27 µM (inactive) and the GI50 (SF-268) was 26.8 µM (inactive). For the same compound, the GI50 (SF-295) was 20 µM (inactive), the GI50 (SF-539) was 15.7 µM (inactive) and the GI50 (SK-MEL-28) was 42.7 µM (inactive). For the same compound, the GI50 (SK-MEL-2) was 81.7 µM (inactive), the GI50 (SK-MEL-5) was 14.7 µM (inactive) and the GI50 (SK-OV-3) was 52.8 µM (inactive). For the same compound, the GI50 (SN12C) was 32.5 µM (inactive), the GI50 (SNB-19) was 38.5 µM (inactive) and the GI50 (SNB-75) was 29.2 µM (inactive). For the same compound, the GI50 (SR) was 16 µM (inactive), the GI50 (SW-620) was 41.6 µM (inactive) and the GI50 (TK-10) was 49.2 µM (inactive). The GI50 (U-251) was 40.8 µM (inactive), the GI50 (UACC-257) was 20.1 µM (inactive) and the GI50 (UACC-62) was > 10 µM (inactive).

For Cc1ccc(S(=O)(=O)OC2CN3CCC2CC3)cc1 (centres undefined), the GI50 (786-0) was > 100 µM (inactive), the GI50 (A498) was > 100 µM (inactive) and the GI50 (A549) was > 100 µM (inactive). The GI50 (ACHN) was > 100 µM (inactive), the GI50 (BT-549) was > 100 µM (inactive) and the GI50 (CAKI-1) was > 100 µM (inactive). The GI50 (CCRF-CEM) was 15.5 µM (inactive), the GI50 (COLO 205) was > 100 µM (inactive) and the GI50 (DU-145) was > 100 µM (inactive). The GI50 (EKVX) was > 100 µM (inactive), the GI50 (HCT-116) was > 100 µM (inactive) and the GI50 (HCT-15) was > 100 µM. For the same compound, the GI50 (HL-60) was 22.6 µM (inactive), the GI50 (HOP-62) was > 100 µM (inactive) and the GI50 (HOP-92) was > 100 µM (inactive). The GI50 (HT-29) was > 100 µM (inactive), the GI50 (Hs-578T) was > 100 µM (inactive) and the GI50 (IGROV-1) was > 100 µM (inactive). For the same compound, the GI50 (K562) was > 100 µM (inactive), the GI50 (KM12) was > 100 µM (inactive) and the GI50 (LOX IMVI) was > 100 µM (inactive). The GI50 (M14) was > 100 µM (inactive), the GI50 (MCF7) was > 100 µM (inactive) and the GI50 (MDA-MB-231) was > 100 µM (inactive). For the same compound, the GI50 (MDA-MB-435) was > 100 µM (inactive), the GI50 (MOLT-4) was > 100 µM (inactive) and the GI50 (Malme-3M) was > 100 µM (inactive). For the same compound, the GI50 (NCI-H226) was > 100 µM (inactive), the GI50 (NCI-H23) was > 100 µM (inactive) and the GI50 (NCI-H460) was > 100 µM (inactive). For the same compound, the GI50 (NCI-H522) was > 100 µM (inactive), the GI50 (NCI/ADR-RES) was > 100 µM (inactive) and the GI50 (OVCAR-3) was > 100 µM (inactive). The GI50 (OVCAR-4) was > 100 µM (inactive), the GI50 (OVCAR-5) was > 100 µM (inactive) and the GI50 (OVCAR-8) was > 100 µM (inactive). For the same compound, the GI50 (PC-3) was > 100 µM (inactive), the GI50 (RPMI-8226) was > 100 µM (inactive) and the GI50 (RXF 393) was > 100 µM (inactive). The GI50 (SF-268) was > 100 µM (inactive), the GI50 (SF-295) was > 100 µM (inactive) and the GI50 (SF-539) was > 100 µM (inactive). The GI50 (SK-MEL-28) was > 100 µM (inactive), the GI50 (SK-MEL-2) was > 100 µM (inactive) and the GI50 (SK-MEL-5) was > 100 µM (inactive). The GI50 (SK-OV-3) was > 100 µM (inactive), the GI50 (SN12C) was > 100 µM (inactive) and the GI50 (SNB-19) was > 100 µM (inactive). For the same compound, the GI50 (SNB-75) was > 100 µM (inactive), the GI50 (SR) was > 100 µM (inactive) and the GI50 (SW-620) was > 100 µM (inactive). The GI50 (T47D) was > 100 µM (inactive), the GI50 (TK-10) was > 100 µM (inactive) and the GI50 (U-251) was > 100 µM (inactive). The GI50 (UACC-257) was > 100 µM (inactive), the GI50 (UACC-62) was > 100 µM (inactive) and the GI50 (UO-31) was > 100 µM (inactive).

For COc1ccc(C2C=C(c3ccc4c(c3)OCO4)Oc3c2c(=O)oc2ccccc32)cc1OC (centres undefined), the GI50 (786-0) was 0.43 µM (active), the GI50 (A498) was 0.502 µM (active) and the GI50 (A549) was 1.05 µM (active). The GI50 (ACHN) was 0.627 µM (active), the GI50 (BT-549) was 3.18 µM (inactive) and the GI50 (CAKI-1) was 0.425 µM (active). For the same compound, the GI50 (CCRF-CEM) was 0.406 µM (active), the GI50 (COLO 205) was 0.361 µM (active) and the GI50 (DU-145) was 0.417 µM (active). The GI50 (EKVX) was 16.5 µM (inactive), the GI50 (HCC 2998) was 0.506 µM (active) and the GI50 (HCT-116) was 0.482 µM (active). For the same compound, the GI50 (HCT-15) was 0.415 µM, the GI50 (HL-60) was 0.248 µM (active) and the GI50 (HOP-62) was > 100 µM (inactive). For the same compound, the GI50 (HOP-92) was 34 µM (inactive), the GI50 (HT-29) was 0.402 µM (active) and the GI50 (Hs-578T) was 0.513 µM (active). For the same compound, the GI50 (IGROV-1) was 0.634 µM (active), the GI50 (K562) was 0.299 µM (active) and the GI50 (KM12) was 0.443 µM (active). The GI50 (LOX IMVI) was 0.593 µM (active), the GI50 (M14) was 0.502 µM (active) and the GI50 (MCF7) was 0.434 µM (active). The GI50 (MDA-MB-231) was 1.36 µM (inactive), the GI50 (MDA-MB-435) was 0.152 µM (active) and the GI50 (MDA-N) was 0.15 µM (active). The GI50 (MOLT-4) was 0.968 µM (active), the GI50 (Malme-3M) was 0.366 µM (active) and the GI50 (NCI-H226) was 0.258 µM (active). For the same compound, the GI50 (NCI-H23) was 0.446 µM (active), the GI50 (NCI-H460) was 0.406 µM (active) and the GI50 (NCI-H522) was 0.303 µM (active). The GI50 (NCI/ADR-RES) was 0.543 µM (active), the GI50 (OVCAR-3) was 0.475 µM (active) and the GI50 (OVCAR-4) was > 100 µM (inactive). For the same compound, the GI50 (OVCAR-5) was 0.556 µM (active), the GI50 (OVCAR-8) was 0.839 µM (active) and the GI50 (PC-3) was 0.429 µM (active). For the same compound, the GI50 (RPMI-8226) was 0.254 µM (active), the GI50 (RXF 393) was 0.252 µM (active) and the GI50 (SF-268) was 0.713 µM (active). The GI50 (SF-295) was 0.279 µM (active), the GI50 (SF-539) was 0.308 µM (active) and the GI50 (SK-MEL-28) was > 93.1 µM (inactive). For the same compound, the GI50 (SK-MEL-5) was 0.324 µM (active), the GI50 (SK-OV-3) was 0.372 µM (active) and the GI50 (SN12C) was 1.36 µM (inactive). For the same compound, the GI50 (SNB-19) was 0.422 µM (active), the GI50 (SNB-75) was 0.344 µM (active) and the GI50 (SR) was 0.236 µM (active). The GI50 (SW-620) was 0.468 µM (active), the GI50 (U-251) was 0.413 µM (active) and the GI50 (UACC-62) was 0.294 µM (active). The GI50 (UO-31) was 0.527 µM (active).
